According to patent publication US20100317524A1, “Sulfonylureas” (Bayer CropScience AG, priority 2005, published 2010):

What was measured:
[1] = system: weed plants such as Sinapis alba, Chrysanthemum segetum, Avena sativa, Stellaria media, Echinochloa crus-galli, Lolium multiflorum, Setaria viridis, Abutilon …; test: Pre-emergence effect on weeds (greenhouse pot test, visual scoring); assay type: in vivo; conditions: applied pre-emergence at a rate of 0.3 kg or less of active substance per hectare; visual scoring after 3 to 4 weeks vs untreated controls
Text: Seeds or sections of rhizome from monocot and dicot weed plants were laid out in sandy loam soil in cardboard pots, and covered with soil. The compounds of the invention, formulated as wettable powders or emulsifiable concentrates, were then applied, in the form of aqueous suspensions or emulsions, at various dosages, onto the surface of the covering earth, at an application rate of 600 to 800 l of water per hectare (converted). Following the treatment, the pots were placed in a greenhouse and maintained under good growth conditions for the weeds. Visual scoring of the plant damage or emergence damage was made when the test plants had emerged, after a test time of 3 to 4 weeks, in comparison to untreated controls.

[2] = system: weed plants such as Sinapis alba, Echinochloa crus-galli, Lolium multiflorum, Chrysanthemum segetum, Setaria viridis, Abutilon theophrasti, Amaranthus …; test: Post-emergence effect on weeds (greenhouse pot test, visual scoring); assay type: in vivo; conditions: applied post-emergence (three-leaf stage) at a rate of 0.3 kg or less of active substance per hectare; visual scoring after about 3 to 4 weeks vs untreated controls
Experimental: Seeds or sections of rhizome from monocot and dicot broadleaf weeds were laid out in sandy loam soil in plastic pots, covered with earth, and cultivated in a greenhouse under good growth conditions. Three weeks after sowing, the test plants were treated at the three-leaf stage. The compounds of the invention, formulated as wettable powders or as emulsion concentrates, were sprayed in different dosages onto the green parts of the plants, at an application rate of 600 to 800 l of water per hectare (converted). After the test plants had stood in the greenhouse under optimum growth conditions for a period of about 3 to 4 weeks, the effect of the products was scored visually in comparison to untreated controls.

COc1nc(C)nc(NC(=O)NS(=O)(=O)c2c(I)cccc2OC(C)C(F)(F)F)n1 (stereo not shown) [Compound 1.363]
herbicidal action against weed plants, pre-emergence [1]: very good herbicidal action
herbicidal action against weed plants, post-emergence [2]: very good herbicidal action

COc1nc(C)nc(NC(=O)NS(=O)(=O)c2c(I)cccc2OCC(F)(F)C(F)(F)F)n1 [Compound 1.370]
herbicidal action against weed plants, pre-emergence [1]: very good herbicidal action
herbicidal action against weed plants, post-emergence [2]: very good herbicidal action

Cc1cc(C)nc(NC(=O)NS(=O)(=O)c2c(F)cccc2I)n1 [Compound 1.003]
herbicidal action against weed plants, pre-emergence [1]: very good herbicidal action
herbicidal action against weed plants, post-emergence [2]: very good herbicidal action

COc1cc(OC)nc(NC(=O)NS(=O)(=O)c2c(I)cccc2OC(C)C)n1 [Compound 1.178]
herbicidal action against weed plants, pre-emergence [1]: very good herbicidal action
herbicidal action against weed plants, post-emergence [2]: very good herbicidal action

CCOc1cccc(I)c1S(=O)(=O)NC(=O)Nc1nc(Cl)cc(OC)n1 [Compound 1.167]
herbicidal action against weed plants, pre-emergence [1]: very good herbicidal action
herbicidal action against weed plants, post-emergence [2]: very good herbicidal action

CSc1cccc(I)c1S(=O)(=O)NC(=O)Nc1nc(C)cc(C)n1 [Compound 1.550]
herbicidal action against weed plants, pre-emergence [1]: very good herbicidal action
herbicidal action against weed plants, post-emergence [2]: very good herbicidal action

COc1cc(OC)nc(NC(=O)NS(=O)(=O)c2c(I)cccc2OS(=O)(=O)N(C)C)n1 [Compound 1.507]
herbicidal action against weed plants, pre-emergence [1]: very good herbicidal action
herbicidal action against weed plants, post-emergence [2]: very good herbicidal action

COc1cc(OC)nc(NC(=O)NS(=O)(=O)c2c(I)cccc2OC(F)F)n1 [Compound 1.321]
herbicidal action against weed plants, pre-emergence [1]: very good herbicidal action
herbicidal action against weed plants, post-emergence [2]: very good herbicidal action

COc1cc(OC)nc(NC(=O)NS(=O)(=O)c2c(F)cccc2I)n1 [Compound 1.001]
herbicidal action against weed plants, pre-emergence [1]: very good herbicidal action
herbicidal action against weed plants, post-emergence [2]: very good herbicidal action

COc1cc(Cl)nc(NC(=O)NS(=O)(=O)c2c(I)cccc2OCC(C)C)n1 [Compound 1.563]
herbicidal action against weed plants, pre-emergence [1]: very good herbicidal action
herbicidal action against weed plants, post-emergence [2]: very good herbicidal action

Cc1cc(C)nc(NC(=O)NS(=O)(=O)c2c(I)cccc2OC(C)C(F)(F)F)n1 (stereo not shown) [Compound 1.364]
herbicidal action against weed plants, pre-emergence [1]: very good herbicidal action
herbicidal action against weed plants, post-emergence [2]: very good herbicidal action

CCC(C)Oc1cccc(I)c1S(=O)(=O)NC(=O)Nc1nc(C)cc(C)n1 (stereo not shown) [Compound 1.558]
herbicidal action against weed plants, pre-emergence [1]: very good herbicidal action
herbicidal action against weed plants, post-emergence [2]: very good herbicidal action

COc1cc(Cl)nc(NC(=O)NS(=O)(=O)c2c(I)cccc2C(F)(F)F)n1 [Compound 1.100]
herbicidal action against weed plants, pre-emergence [1]: very good herbicidal action
herbicidal action against weed plants, post-emergence [2]: very good herbicidal action

COc1nc(NC(=O)NS(=O)(=O)c2c(I)cccc2OC(C)C)nc(OC)n1 [Compound 1.191]
herbicidal action against weed plants, pre-emergence [1]: very good herbicidal action
herbicidal action against weed plants, post-emergence [2]: very good herbicidal action

COc1cc(OC)nc(NC(=O)NS(=O)(=O)c2c(OC)ccc(Cl)c2I)n1 [Compound 1.598]
herbicidal action against weed plants, pre-emergence [1]: very good herbicidal action
herbicidal action against weed plants, post-emergence [2]: very good herbicidal action

Cc1cc(C)nc(NC(=O)NS(=O)(=O)c2c(C)cccc2I)n1 [Compound 1.020]
herbicidal action against weed plants, pre-emergence [1]: very good herbicidal action
herbicidal action against weed plants, post-emergence [2]: very good herbicidal action

COc1nc(NC(=O)NS(=O)(=O)c2c(I)cccc2OCC(F)F)nc(OC)n1 [Compound 1.355]
herbicidal action against weed plants, pre-emergence [1]: very good herbicidal action
herbicidal action against weed plants, post-emergence [2]: very good herbicidal action

CCCOc1cccc(I)c1S(=O)(=O)NC(=O)Nc1nc(OC)cc(OC)n1 [Compound 1.171]
herbicidal action against weed plants, pre-emergence [1]: very good herbicidal action
herbicidal action against weed plants, post-emergence [2]: very good herbicidal action

CCCCOc1cccc(I)c1S(=O)(=O)NC(=O)Nc1nc(C)nc(OC)n1 [Compound 1.553]
herbicidal action against weed plants, pre-emergence [1]: very good herbicidal action
herbicidal action against weed plants, post-emergence [2]: very good herbicidal action

COc1nc(NC(=O)NS(=O)(=O)c2c(OC)ccc(Cl)c2I)nc(OC)n1 [Compound 1.602]
herbicidal action against weed plants, pre-emergence [1]: very good herbicidal action
herbicidal action against weed plants, post-emergence [2]: very good herbicidal action

CCC(C)Oc1cccc(I)c1S(=O)(=O)NC(=O)Nc1nc(OC)cc(OC)n1 (stereo not shown) [Compound 1.196]
herbicidal action against weed plants, pre-emergence [1]: very good herbicidal action
herbicidal action against weed plants, post-emergence [2]: very good herbicidal action

COc1nc(NC(=O)NS(=O)(=O)c2c(I)cccc2OS(C)(=O)=O)nc(OC)n1 [Compound 1.476]
herbicidal action against weed plants, pre-emergence [1]: very good herbicidal action
herbicidal action against weed plants, post-emergence [2]: very good herbicidal action

COc1cc(Cl)nc(NC(=O)NS(=O)(=O)c2c(I)cccc2OS(C)(=O)=O)n1 [Compound 1.472]
herbicidal action against weed plants, pre-emergence [1]: very good herbicidal action
herbicidal action against weed plants, post-emergence [2]: very good herbicidal action

COc1nc(C)nc(NC(=O)NS(=O)(=O)c2c(I)cccc2OCC(F)F)n1 [Compound 1.352]
herbicidal action against weed plants, pre-emergence [1]: very good herbicidal action
herbicidal action against weed plants, post-emergence [2]: very good herbicidal action

COc1nc(C)nc(NC(=O)NS(=O)(=O)c2c(I)cccc2OC(C)C)n1 [Compound 1.182]
herbicidal action against weed plants, pre-emergence [1]: very good herbicidal action
herbicidal action against weed plants, post-emergence [2]: very good herbicidal action

COc1nc(C)nc(NC(=O)NS(=O)(=O)c2c(I)cccc2C(F)(F)F)n1 [Compound 1.095]
herbicidal action against weed plants, pre-emergence [1]: very good herbicidal action
herbicidal action against weed plants, post-emergence [2]: very good herbicidal action

COc1nc(C)nc(NC(=O)NS(=O)(=O)c2c(C)cccc2I)n1 [Compound 1.016]
herbicidal action against weed plants, pre-emergence [1]: very good herbicidal action
herbicidal action against weed plants, post-emergence [2]: very good herbicidal action

COc1cc(Cl)nc(NC(=O)NS(=O)(=O)c2c(I)cccc2OC)n1 [Compound 1.155]
herbicidal action against weed plants, pre-emergence [1]: very good herbicidal action
herbicidal action against weed plants, post-emergence [2]: very good herbicidal action

CCCCOc1cccc(I)c1S(=O)(=O)NC(=O)Nc1nc(Cl)cc(OC)n1 [Compound 1.555]
herbicidal action against weed plants, pre-emergence [1]: very good herbicidal action
herbicidal action against weed plants, post-emergence [2]: very good herbicidal action

CCOc1cccc(I)c1S(=O)(=O)NC(=O)Nc1nc(C)cc(C)n1 [Compound 1.166]
herbicidal action against weed plants, pre-emergence [1]: very good herbicidal action
herbicidal action against weed plants, post-emergence [2]: very good herbicidal action

CCCCOc1cccc(I)c1S(=O)(=O)NC(=O)Nc1nc(C)cc(C)n1 [Compound 1.554]
herbicidal action against weed plants, pre-emergence [1]: very good herbicidal action
herbicidal action against weed plants, post-emergence [2]: very good herbicidal action

CCCOc1cccc(I)c1S(=O)(=O)NC(=O)Nc1nc(C)cc(C)n1 [Compound 1.173]
herbicidal action against weed plants, pre-emergence [1]: very good herbicidal action
herbicidal action against weed plants, post-emergence [2]: very good herbicidal action

Cc1cc(C)nc(NC(=O)NS(=O)(=O)c2c(I)cccc2OC(C)C)n1 [Compound 1.186]
herbicidal action against weed plants, pre-emergence [1]: very good herbicidal action
herbicidal action against weed plants, post-emergence [2]: very good herbicidal action

COc1cccc(I)c1S(=O)(=O)NC(=O)Nc1nc(C)cc(C)n1 [Compound 1.154]
herbicidal action against weed plants, pre-emergence [1]: very good herbicidal action
herbicidal action against weed plants, post-emergence [2]: very good herbicidal action

COc1nc(NC(=O)NS(=O)(=O)c2c(I)cccc2OCC2CC2)nc(OC)n1 [Compound 1.242]
herbicidal action against weed plants, pre-emergence [1]: very good herbicidal action
herbicidal action against weed plants, post-emergence [2]: very good herbicidal action
